# In US12303505B2, “Tumor-treating pharmaceutical composition” (Eisai R&D Management Co., Ltd., priority 2017, dated 2025):
# Counter-ions that a name gives are not always drawn.
# What was measured:
# Type in all cases: in vivo
# [1] = test system: Mouse breast cancer 4T1 cells; test: Antitumor effect in mouse breast cancer 4T1 orthotopic transplantation model
# Method: Mouse breast cancer 4T1 cells (ATCC) were cultured by using RPMI1640 medium (Sigma-Aldrich Co. LLC) containing 10% FBS in a 5% CO2 incubator under conditions of 37° C. When the cells became an approximately 80% confluent state, the cells were recovered by using trypsin-EDTA. A suspension was prepared by adding Hank's balanced salt solution so as to be 1.0×10^7 cells/mL. 0.1 mL of the obtained cell suspension was transplanted to the right third mammary gland fat pads of five mice ([…], Charles River Laboratories Japan, Inc.) each of a control group, an E7386 25 mg/kg alone administration group, a lenvatinib mesylate 10 mg/kg alone administration group, and a combined administration group of 25 mg/kg E7386 and 10 mg/kg lenvatinib mesylate. From 9 days after the transplantation, E7386 (25 mg/kg, b.d.s., 14 days, oral administration) and lenvatinib mesylate (10 mg/kg, q.d., 14 days, oral administration) were administered alone or in combination to the alone administration group or the combined administration group. For the administration, E7386 was dissolved in 0.1 mol/L hydrochloric acid, and lenvatinib mesylate was dissolved in 3 mmol/L hydrochloric acid. Any drug was not administered to the control group.
# When the start day of administration was defined as day 1, the major axis and minor axis of tumor developed in each mouse were then measured at day 3, day 6, day 9, and day 14 by using Digimatic Caliper (Mitutoyo Corp.).
# (§1) The tumor volume and the relative tumor volume (RTV) were calculated according to the following expressions. Tumor volume (mm^3)=Tumor major axis (mm)×Tumor minor axis^2 (mm^2)/2 Relative tumor volume (RTV)=Tumor volume at the measurement day/Tumor volume at the start day of administration
# [2] = test system: human anaplastic thyroid cancer cell line HTC/C3; test: Antitumor effect in human anaplastic thyroid cancer cell line HTC/C3 transplantation model, nude mice
# Method: A human anaplastic thyroid cancer cell line HTC/C3 (JCBR Cell Bank) was cultured by using D-MEM High Glucose medium (Wako Pure Chemical Industries, Ltd.) containing 10% FBS in a 5% CO2 incubator under conditions of 37° C. When the cells became an approximately 80% confluent state, the cells were recovered by using trypsin-EDTA. A suspension was prepared by adding Hank's balanced salt solution containing 50% Matrigel to the cells so as to be 1.0×10^7 cells/mL. 0.1 mL of the obtained cell suspension was subcutaneously transplanted to the sides of the bodies of five nude mice (CAnN.Cg-Foxn1^nu/CrlCrlj, Charles River Laboratories Japan, Inc.) each of a control group, an E7386 12.5, 25 or 50 mg/kg alone administration group, a lenvatinib mesylate 10 mg/kg alone administration group, and a combined administration group of 12.5, 25 or 50 mg/kg E7386 and 10 mg/kg lenvatinib mesylate. From 11 days after the transplantation, E7386 (12.5, 25, or 50 mg/kg, b.d.s., 14 days, oral administration) and lenvatinib mesylate (10 mg/kg, q.d., 14 days, oral administration) were administered alone or in combination to the alone administration group or the combined administration group. For the administration, E7386 was dissolved in 0.1 mol/L hydrochloric acid, and lenvatinib mesylate was dissolved in 3 mmol/L hydrochloric acid. 0.1 mol/L hydrochloric acid (b.d.s., 14 days) was administered to the control group.
# When the start day of administration was defined as day 1, the major axis and minor axis of tumor developed in each mouse were then measured at day 4, day 8, day 11, and day 15 by using Digimatic Caliper (Mitutoyo Corp.).
# as §1
# [3] = test system: Human hepatocellular carcinoma line HepG2 cells; test: Antitumor effect in human hepatocellular carcinoma line HepG2 subcutaneous transplantation model, nude mice
# Method: Human hepatocellular carcinoma line HepG2 cells (JCRB Cell Bank) were cultured by using DMEM-Low glucose medium (Wako Pure Chemical Industries, Ltd.) containing 10% FBS in a 5% CO2 incubator under conditions of 37° C. When the cells became an approximately 80% confluent state, the cells were recovered by using trypsin-EDTA. A suspension was prepared by adding phosphate-buffered saline containing 50% Matrigel to the cells so as to be 10.0×10^7 cells/mL. 0.1 mL of the obtained cell suspension was subcutaneously transplanted to the sides of the bodies of five nude mice (CAnN.Cg-Foxn1^nu/CrlCrlj, Charles River Laboratories Japan, Inc.) each of a control group, an E7386 50 mg/kg alone administration group, a lenvatinib mesylate 10 mg/kg alone administration group, and a combined administration group of 50 mg/kg E7386 and 10 mg/kg lenvatinib mesylate. From 12 days after the transplantation, E7386 (50 mg/kg, b.d.s., 14 days, oral administration) and lenvatinib mesylate (10 mg/kg, q.d., 14 days, oral administration) were administered alone or in combination to the alone administration group or the combined administration group. For the administration, E7386 was dissolved in 0.1 mol/L hydrochloric acid, and lenvatinib mesylate was dissolved in 3 mmol/L hydrochloric acid. Any drug was not administered to the control group.
# When the start day of administration was defined as day 1, the major axis and minor axis of tumor developed in each mouse were then measured at day 4, day 7, day 9, day 13, and day 15 by using Digimatic Caliper (Mitutoyo Corp.).
# as §1
# [4] = Day 4, E7386 50 mg/kg b.d.s. oral alone
# [5] = Day 15, E7386 50 mg/kg b.d.s. oral alone
# [6] = Day 9, lenvatinib mesylate 10 mg/kg q.d. oral alone
# [7] = Day 4, lenvatinib mesylate 10 mg/kg q.d. oral alone
# [8] = Day 15, lenvatinib mesylate 10 mg/kg q.d. oral alone
structure (smiles),measurement,setting,value
"C=CCN1CC(=O)N2[C@@H](Cc3ccc(O)cc3F)C(=O)N(Cc3cccc(N4CC(N5CCN(CC)CC5)C4)n3)C[C@@H]2N1C(=O)NCc1ccccc1 [E7386, (6S,9aS)—N-Benzyl-8-({6-[3-(4-ethylpiperazin-1-yl)azetidin-1-yl]pyridin-2-yl}methyl)-6-(2-fluoro-4-hydroxybenzyl)-4,7-dioxo-2-(prop-2-en-1-yl)hexahydro-2H-pyrazino[2,1-c][1,2,4]triazine-1(6H)-carboxamide]","Relative tumor volume (RTV), mean±SD","[1]; Day 3, E7386 25 mg/kg b.d.s. oral alone",1.59 ± 0.38
same,"Relative tumor volume (RTV), mean±SD","[1]; Day 6, E7386 25 mg/kg b.d.s. oral alone",1.75 ± 0.42
same,"Relative tumor volume (RTV), mean±SD","[1]; Day 9, E7386 25 mg/kg b.d.s. oral alone",2.17 ± 0.76
same,"Relative tumor volume (RTV), mean±SD","[1]; Day 14, E7386 25 mg/kg b.d.s. oral alone",2.32 ± 0.68
same,"Relative tumor volume (RTV), mean±SD","[2]; Day 4, E7386 12.5 mg/kg b.d.s. oral alone",1.68 ± 0.13
same,"Relative tumor volume (RTV), mean±SD","[2]; Day 4, E7386 25 mg/kg b.d.s. oral alone",1.72 ± 0.10
same,"Relative tumor volume (RTV), mean±SD",[2]; [4],1.74 ± 0.09
same,"Relative tumor volume (RTV), mean±SD","[2]; Day 8, E7386 12.5 mg/kg b.d.s. oral alone",4.02 ± 0.40
same,"Relative tumor volume (RTV), mean±SD","[2]; Day 8, E7386 25 mg/kg b.d.s. oral alone",3.99 ± 0.62
same,"Relative tumor volume (RTV), mean±SD","[2]; Day 8, E7386 50 mg/kg b.d.s. oral alone",4.00 ± 0.66
same,"Relative tumor volume (RTV), mean±SD","[2]; Day 11, E7386 12.5 mg/kg b.d.s. oral alone",6.27 ± 0.93
same,"Relative tumor volume (RTV), mean±SD","[2]; Day 11, E7386 25 mg/kg b.d.s. oral alone",6.44 ± 1.09
same,"Relative tumor volume (RTV), mean±SD","[2]; Day 11, E7386 50 mg/kg b.d.s. oral alone",5.85 ± 1.42
same,"Relative tumor volume (RTV), mean±SD","[2]; Day 15, E7386 12.5 mg/kg b.d.s. oral alone",8.58 ± 2.48
same,"Relative tumor volume (RTV), mean±SD","[2]; Day 15, E7386 25 mg/kg b.d.s. oral alone",8.81 ± 2.14
same,"Relative tumor volume (RTV), mean±SD",[2]; [5],7.83 ± 2.28
same,"Relative tumor volume (RTV), mean±SD",[3]; [4],1.45 ± 0.23
same,"Relative tumor volume (RTV), mean±SD","[3]; Day 7, E7386 50 mg/kg b.d.s. oral alone",3.05 ± 0.57
same,"Relative tumor volume (RTV), mean±SD","[3]; Day 9, E7386 50 mg/kg b.d.s. oral alone",3.96 ± 0.53
same,"Relative tumor volume (RTV), mean±SD","[3]; Day 13, E7386 50 mg/kg b.d.s. oral alone",5.60 ± 1.02
same,"Relative tumor volume (RTV), mean±SD",[3]; [5],6.23 ± 1.39
"COc1cc2nccc(Oc3ccc(NC(=O)NC4CC4)c(Cl)c3)c2cc1C(N)=O [Lenvatinib mesylate, 4-(3-chloro-4-(cyclopropylaminocarbonyl)aminophenoxy)-7-methoxy-6-quinolinecarboxamide, reference compound]","Relative tumor volume (RTV), mean±SD","[1]; Day 3, lenvatinib mesylate 10 mg/kg q.d. oral alone",1.36 ± 0.28
same,"Relative tumor volume (RTV), mean±SD","[1]; Day 6, lenvatinib mesylate 10 mg/kg q.d. oral alone",1.46 ± 0.28
same,"Relative tumor volume (RTV), mean±SD",[1]; [6],1.75 ± 0.41
same,"Relative tumor volume (RTV), mean±SD","[1]; Day 14, lenvatinib mesylate 10 mg/kg q.d. oral alone",1.99 ± 0.26
same,"Relative tumor volume (RTV), mean±SD",[2]; [7],1.71 ± 0.10
same,"Relative tumor volume (RTV), mean±SD","[2]; Day 8, lenvatinib mesylate 10 mg/kg q.d. oral alone",3.57 ± 0.54
same,"Relative tumor volume (RTV), mean±SD","[2]; Day 11, lenvatinib mesylate 10 mg/kg q.d. oral alone",5.15 ± 1.07
same,"Relative tumor volume (RTV), mean±SD",[2]; [8],6.23 ± 1.71
same,"Relative tumor volume (RTV), mean±SD",[3]; [7],1.10 ± 0.08
same,"Relative tumor volume (RTV), mean±SD","[3]; Day 7, lenvatinib mesylate 10 mg/kg q.d. oral alone",1.60 ± 0.94
same,"Relative tumor volume (RTV), mean±SD",[3]; [6],2.07 ± 0.88
same,"Relative tumor volume (RTV), mean±SD","[3]; Day 13, lenvatinib mesylate 10 mg/kg q.d. oral alone",2.70 ± 1.47
same,"Relative tumor volume (RTV), mean±SD",[3]; [8],3.43 ± 1.46
